Source: the supplement of paper PMC10331698
± gives the standard deviation of the averaged measurements.

Compound: OCC(F)(F)OC(F)(F)C(F)(F)OC(F)(F)C(F)(F)OC(F)(F)CO [1H,1H,11H,11H-Perfluorotetraethylene glycol] (in DMSO)
Experiment: level (log10 ratio to DMSO vehicle control); higher = higher biomarker level / cell amount than vehicle control
Method: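 BioMAP Diversity Plus panel of 12 human primary cell co-culture systems (3C, 4H, LPS, SAg, BT, BF4T, BE3C, CASM3C, HDF3CGF, KF3CT, MyoF, Mphg). Compounds were added 1 h before stimulation and left for 24 h (MyoF 48 h; BT 72 h for soluble read-outs or 6 d for IgG). Biomarkers were read by ELISA, cytotoxicity by SRB, PBMC viability and proliferation by Alamar Blue. Each well value was divided by the mean of 8 DMSO control wells on the same plate and log10 transformed; duplicate blinded samples were tested at 4 concentrations.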

Test System	level (log10) (6700 nM)	level (log10) (20000 nM)	level (log10) (60000 nM)
3C:CD87/uPAR	0.008 ± 0.03	-0.007 ± 0.023	-0.0005 ± 0.011
3C:CXCL8/IL-8	0.003 ± 0.025	-0.009 ± 0.0099	-0.0045 ± 0.0035
3C:CXCL9/MIG	0.0095 ± 0.022	0.0065 ± 0.026	0.012 ± 0.0028
3C:HLA-DR	-0.0055 ± 0.049	-0.001 ± 0.023	-0.047 ± 0.028
3C:Proliferation	-0.04 ± 0.067	-0.116 ± 0.061	-0.248 ± 0.049
3C:SRB	0.003 ± 0.0071	-0.0185 ± 0.013	-0.079 ± 0.033
4H:CCL2/MCP-1	-0.0525 ± 0.029	-0.126 ± 0.0071	-0.196 ± 0.027
4H:CCL26/Eotaxin-3	-0.0255 ± 0.0064	-0.017 ± 0.044	0.0375 ± 0.028
4H:CD62P/P-selectin	-0.0065 ± 0.035	-0.0155 ± 0.018	-0.0055 ± 0.0078
4H:CD87/uPAR	0.001 ± 0.082	-0.0065 ± 0.053	0.0315 ± 0.012
4H:CD106/VCAM-1	0.0345 ± 0.011	-0.016 ± 0.011	-0.078 ± 0.016
4H:SRB	-0.0045 ± 0.013	-0.032 ± 0.023	-0.0795 ± 0.037
4H:VEGFR2	0.008 ± 0.042	0.003 ± 0.05	0.07 ± 0.051
BE3C:CD54/ICAM-1	-0.004 ± 0.011	0.012 ± 0.0099	-0.048 ± 0.0099
BE3C:CD87/uPAR	0.0025 ± 0.0078	0.01 ± 0.0071	-0.0355 ± 0.0078
BE3C:CXCL8/IL-8	-0.0165 ± 0.0035	-0.071 ± 0.033	-0.0405 ± 0.056
BE3C:CXCL9/MIG	-0.005 ± 0.0042	0.004 ± 0.0071	-0.0355 ± 0.015
BE3C:CXCL10/IP-10	-0.012 ± 0.0028	-0.0315 ± 0.021	-0.167 ± 0.028
BE3C:CXCL11/I-TAC	-0.0135 ± 0.0021	-0.03 ± 0.0028	-0.092 ± 0.028
BE3C:EGFR	0.0055 ± 0.011	-0.0005 ± 0.0078	-0.034 ± 0.0014
BE3C:HLA-DR	-0.03 ± 0.011	-0.016 ± 0.0014	-0.163 ± 0.013
BE3C:IL-1alpha	-0.001 ± 0.024	-0.0185 ± 0.0035	-0.0065 ± 0.057
BF4T:CCL2/MCP-1	-0.0295 ± 0.012	-0.119 ± 0.016	-0.227 ± 0.013

Test System	level (log10) (6700 nM)	level (log10) (20000 nM)	level (log10) (60000 nM)
BF4T:CCL26/Eotaxin-3	0.0395 ± 0.025	-0.013 ± 0.021	-0.0675 ± 0.0064
BF4T:CD54/ICAM-1	-0.002 ± 0.023	-0.03 ± 0.0014	-0.0815 ± 0.0064
BF4T:CD90	-0.005 ± 0.0042	-0.03 ± 0.0014	-0.071 ± 0.0085
BF4T:CD106/VCAM-1	0.0765 ± 0.0092	-0.018 ± 0.037	-0.0835 ± 0.043
BF4T:CXCL8/IL-8	-0.0155 ± 0.026	-0.0265 ± 0.026	-0.0245 ± 0.03
BF4T:IL-1alpha	0.0095 ± 0.012	-0.002 ± 0.025	0.003 ± 0.051
BF4T:Keratin 8/18	-0.0025 ± 0.012	-0.005 ± 0.0057	-0.0335 ± 0.015
BF4T:MMP-1	-0.0025 ± 0.016	0.0005 ± 0.018	0.0065 ± 0.046
BF4T:MMP-3	0.0035 ± 0.016	0.012 ± 0.0028	-0.011 ± 0.013
BF4T:MMP-9	-0.007 ± 0.013	-0.004 ± 0.013	-0.0405 ± 0.033
BF4T:PAI-I	-0.0035 ± 0.0092	-0.0335 ± 0.00071	-0.069 ± 0.016
BF4T:SRB	-0.0035 ± 0.0021	-0.0065 ± 0.0021	-0.0345 ± 0.033
BF4T:tPA	-0.036 ± 0.0028	-0.0685 ± 0.043	-0.201 ± 0.035
BF4T:uPA	-0.0125 ± 0.018	-0.0155 ± 0.013	-0.0215 ± 0.0064
BT:B cell Proliferation	0.0215 ± 0.0021	-0.0175 ± 0.021	-0.051 ± 0.011
BT:PBMC Cytotoxicity	0.019 ± 0.0042	-0.018 ± 0.03	-0.0425 ± 0.028
BT:Secreted IgG	-0.093 ± 0.0099	-0.135 ± 0.0071	-0.374 ± 0.055
BT:sIL-2	0.0295 ± 0.12	0.0865 ± 0.1	0.005 ± 0.13
BT:sIL-6	-0.025 ± 0.014	-0.101 ± 0.048	-0.302 ± 0.017
BT:sIL-17A	-0.075 ± 0.069	-0.105 ± 0.032	-0.337 ± 0.18
BT:sIL-17F	-0.0185 ± 0.015	-0.176	-0.396 ± 0.044
BT:sTNF-alpha	0.0045 ± 0.066	-0.033 ± 0.09	-0.234 ± 0.044
LPS:CCL2/MCP-1	-0.0125 ± 0.0035	-0.033 ± 0.028	-0.0405 ± 0.025

Test System	level (log10) (6700 nM)	level (log10) (20000 nM)	level (log10) (60000 nM)
LPS:CD40	-0.0565 ± 0.026	-0.058 ± 0.054	-0.126 ± 0.035
LPS:CD62E/E-Selectin	0.004 ± 0.025	-0.012 ± 0.016	-0.0165 ± 0.016
LPS:CD69	-0.0115 ± 0.025	-0.072 ± 0.035	-0.095 ± 0.011
LPS:CD106/VCAM-1	0.001 ± 0.045	-0.002 ± 0.034	-0.041 ± 0.052
LPS:CD141/Thrombomodulin	0.0725 ± 0.076	0.09 ± 0.067	0.157 ± 0.056
LPS:CD142/Tissue Factor	-0.0455 ± 0.016	-0.0665 ± 0.0064	-0.0575 ± 0.07
LPS:CXCL8/IL-8	-0.0025 ± 0.00071	-0.01 ± 0.0057	-0.02 ± 0.011
LPS:IL-1alpha	-0.02 ± 0.024	-0.017 ± 0.0057	-0.006 ± 0.042
LPS:M-CSF	0.0105 ± 0.03	-0.0025 ± 0.036	0.0355 ± 0.011
LPS:SRB	-0.0175 ± 0.0078	-0.0255 ± 0.013	-0.086 ± 0.013
LPS:sPGE2	0.032 ± 0.034	0.0965 ± 0.0078	0.056 ± 0.011
LPS:sTNF-alpha	0.0035 ± 0.0078	0.002 ± 0.0085	-0.082 ± 0.0099
SAg:CCL2/MCP-1	-0.023 ± 0.038	-0.0395 ± 0.03	-0.094 ± 0.024
SAg:CD38	-0.0035 ± 0.049	-0.0255 ± 0.023	-0.0895 ± 0.033
SAg:CD40	0.011 ± 0.03	-0.035 ± 0.044	-0.132 ± 0.043
SAg:CD62E/E-Selectin	-0.009 ± 0.042	-0.0455 ± 0.0078	-0.276 ± 0.062
SAg:CD69	-0.0095 ± 0.1	-0.0275 ± 0.066	-0.162 ± 0.061
SAg:CXCL8/IL-8	-0.0225 ± 0.069	-0.061 ± 0.072	-0.209 ± 0.005
SAg:CXCL9/MIG	-0.0095 ± 0.005	0.0095 ± 0.0035	0.015 ± 0.0071
SAg:PBMC Cytotoxicity	-0.023 ± 0.034	0.008 ± 0.016	-0.002 ± 0.033
SAg:Proliferation	-0.0355 ± 0.074	-0.0455 ± 0.00071	-0.126 ± 0.016
SAg:SRB	-0.008 ± 0.025	-0.0175 ± 0.021	-0.045 ± 0.021
